Values of other authors, collected in patent publication US20100204159A1, “ORGANIC COMPOUNDS AND THEIR USES” (priority 2006, published 2010).

System: HCV
Details: ribavirin alone; Davis, Gastroenterology 118:S104-S114, 2000

NC(=O)c1ncn([C@@H]2O[C@H](CO)[C@@H](O)[C@H]2O)n1 [Ribavirin, 1-β-D-ribofuranosyl-1-1,2,4-triazole-3-caroxamide]
effect on serum levels of HCV-RNA: does not lower serum levels of HCV-RNA
patients in whom serum amino transferase levels are reduced to normal: 40 % of patients
